Data published in patent EP0337503B1, “Fumigation methods and compositions” (Entek Corporation, priority 1983, dated 1984).

Legend:
[1] = Decomposition in sandy loam soil at different moisture, CS2 in air space by gas chromatography; type: physicochemical; conditions: hours to maximum CS2 concentration in the air space
Description: A sandy loam soil is placed in 1-liter glass bottles, fitted with stoppers having fluorocarbon liners and silicone rubber septa, to give a soil depth of about 4 cm. […] Thiocarbonate solution or carbon disulfide is injected near the bottom of the soil layer, the bottles are promptly sealed, and the air space in the bottles is sampled at intervals with a syringe, for gas chromatographic analysis of CS2. Results are summarized below, wherein degradation time is the number of hours required to achieve the maximum CS2 concentration in the air space.

[2] = Storage stability: loss of ability of aqueous solutions to generate carbon disulfide upon contact with strong acid; type: physicochemical; conditions: aqueous solutions of tetrathiocarbonate salts, about 14 to about 16 percent by weight carbon disulfide equivalent, air-tight glass containers, 49° C.
Description: Various tetrathiocarbonate salts are evaluated for storage stability by measuring the loss of the ability of aqueous solutions thereof to generate carbon disulfide upon contact with strong acid. Aqueous solutions of the salts listed in the following table, having an equivalent of from about 14 to about 16 percent by weight carbon disulfide, are stored in air-tight glass containers at a temperature of 49° C.

[3] = tested on: Fusarium oxysporum; experiment: Fungicidal test, radial growth of mycelia colonies; type: cell-based
Description: (§1) Thiocarbonate solutions are used in a test of their fungicidal properties. Cultures of four plant pathogenic fungi are grown upon potato dextrose agar at room temperature, in diffuse natural lighting. After one week, square blocks having 2 millimeter sides are cut from the edges of actively growing mycelia spots on the agar.
(§2) The blocks are immersed in sterile deionized water, as a control, or in dilutions of thiocarbonate solutions using the sterile water, in a closed container. Subsequently, the blocks are removed and placed upon agar in clean plates, and mycelia are allowed to grow for one week.
(§3) Radial growth of mycelia colonies is measured for each of the six to eight replicate plates used for a particular fungus, and average colony radius is calculated. Percent control is defined by the following equation: Percent control =[1-((Average radius of treated plates)/(Average radius of control plates))]x100 [formula]
(§4) Concentrations given for solutions used to treat the agar blocks are expressed in grams of thiocarbonate solution per liter of diluted solution.

[4] = tested on: Phytophthora cinnamomi; experiment: Fungicidal test, radial growth of mycelia colonies; type: cell-based
Description: as §1, §2, §3, §4

[5] = tested on: Sclerotium rolfsii; experiment: Fungicidal test, radial growth of mycelia colonies; type: cell-based
Description: as §1, §2, §3, §4

[6] = tested on: Verticillium dahliae; experiment: Fungicidal test, radial growth of mycelia colonies; type: cell-based
Description: as §1, §2, §3, §4

[7] = tested on: nematode larvae; experiment: In-vitro nematocidal test: larvae treated in aqueous suspension, injected into root zone of tomato plants, gall count; type: in vivo, Meloidogyne incognita; conditions: larvae treated 1 hour; for Gall Count, replicate 2: control 88; for Gall Count, Mean: control 89; for Gall Count, replicate 1: control 90
Description: The procedure of Example 2 is repeated except that potassium tetrathiocarbonate is substituted for stabilized ammonium tetrathiocarbonate and an in-vitro nematocidal test is used. In the in-vitro test, the nematode larvae are treated in aqueous suspension for 1 hour at the concentrations of fumigant given in the following table, washed twice with water, and injected into the active root zone of the tomato plants. After thirty days the roots are harvested, examined for galling, giving the results summarized below.

[8] = Effect of pH on production of CS2 from thiocarbonates in citrate-phosphate buffers, gas chromatography of air; type: physicochemical
Description: Pure carbon disulfide is also injected, for comparison. A syringe is used to periodically sample air in the bottle, and the air is analyzed by gas chromatography.

[9] = tested on: root-knot nematode larvae (Meloidogyne incognita); experiment: Greenhouse nematocide experiment with tomato plants, soil drench, root gall count; type: in vivo; conditions: 30 days; for Gall Counts, replicate 3: control 1; for Gall Counts, Mean: control 4.0; for Gall Counts, replicate 2: control 7; for Gall Counts, replicate 1: control 4
Description: In the experiment, thirty containers are used, each containing about 500 grams of sterilized sandy loam soil. Each container contains one tomato plant. Each container is injected with four 5-milliliter portions of extract from nematode-infested pepper roots, one inch below the soil surface, producing an initial population of 2000 root-knot nematode larvae (Meloidogyne incognita) per container.
Ten treatments are replicated three times, each treatment consisting of drenching the soil with a solution containing the fumigant to provide the dosage of CS2 given in the following table. The solutions are diluted with sufficient water to saturate the soil. The treatments include calcium tetrathiocarbonate, stabilized ammonium tetrathiocarbonate, and carbon disulfide at three levels, plus an untreated control. After drenching, each container is allowed to stand at ambient conditions. The plants are harvested after 30 days of growth, and soil is removed from the roots by a gentle washing with water. By use of a magnifying glass, the number of root galls is counted on each plant.
Results are summarized below, wherein the "Application" represents milligrams of treatment per kilogram of soil, calculated as the thiocarbonate salt and the equivalent carbon disulfide. Gall counts are mean values from the three replicates.

[10] = Soil Moisture 0 % of Saturation
[11] = Soil Moisture 50 % of Saturation
[12] = Soil Moisture 100 % of Saturation
[13] = 1 g/l, listed as K2CS4 (9.43%CS2)
[14] = 10 g/l, listed as K2CS4 (9.43%CS2)
[15] = 50 ppm salt (6.3 ppm CS2 equiv. CaCS4; 6.5 ppm K2CS4)
[16] = 100 ppm salt (12.5 ppm CS2 equiv. CaCS4; 13 ppm K2CS4)
[17] = 150 ppm salt (18.8 ppm CS2 equiv. CaCS4; 19.5 ppm K2CS4)
[18] = 100 g/l thiocarbonate solution per liter of diluted solution
[19] = highest application: 638/89 ppm ((NH4)2CS4·(NH4)2S), 730/91 (CaCS4), 97 ppm (CS2)
[20] = lowest application: 213/30 ppm ((NH4)2CS4·(NH4)2S), 245/31 (CaCS4), 32 ppm (CS2)
[21] = middle application: 425/60 ppm ((NH4)2CS4·(NH4)2S), 490/61 (CaCS4), 65 ppm (CS2)

For `S=C(S)SS` [Formula K2CS4, potassium tetrathiocarbonate], the “Degradation Time” value [1, 10] was 2 h, the “Degradation Time” value [1, 11] was 5 h and the “Degradation Time” value [1, 12] was 48 h. The “Half-life (months)” value ([2]; listed as K^+) was 2.9 months, the “Percent Control Fusarium oxysporum” value [3, 13] was 8% and the “Percent Control Fusarium oxysporum” value [3, 14] was 10%. The “Percent Control Fusarium oxysporum” value ([3]; 100 g/l thiocarbonate solution per liter of diluted solution, listed as K2CS4 (9.43%CS2)) was 76%, the “Percent Control Phytophthora cinnamomi” value [4, 13] was 56% and the “Percent Control Phytophthora cinnamomi” value [4, 14] was 68%. For the same compound, the “Percent Control Phytophthora cinnamomi” value ([4]; 100 g/l) was 100%, the “Percent Control Sclerotium rolfsii” value [5, 13] was 42% and the “Percent Control Sclerotium rolfsii” value [5, 14] was 8%. The “Percent Control Sclerotium rolfsii” value ([5]; 100 g/l) was 100%, the “Percent Control Verticillium dahliae” value [6, 13] was 27% and the “Percent Control Verticillium dahliae” value [6, 14] was 15%. For the same compound, the “Percent Control Verticillium dahliae” value ([6]; 100 g/l) was 100%, the “Gall Count, replicate 2” value [7, 15] was 66 and the “Gall Count, Mean” value [7, 15] was 49.5. For the same compound, the “Gall Count, replicate 1” value [7, 15] was 33, the “Gall Count, replicate 2” value [7, 16] was 145 and the “Gall Count, Mean” value [7, 16] was 171.5. The “Gall Count, replicate 1” value [7, 16] was 198, the “Gall Count, replicate 2” value [7, 17] was 22 and the “Gall Count, Mean” value [7, 17] was 35.5. For the same compound, the “Gall Count, replicate 1” value [7, 17] was 49.

In the case of `S=C(S)SS` [NH4^+, ammonium tetrathiocarbonate], the “Half-life (months)” value [2] is reported as 0.17 months.

With `S=C(S)SS` [Na2CS4 (10.6%CS2), sodium tetrathiocarbonate] the “Half-life (months)” value ([2]; listed as Na^+) was 3.0 months, the “Percent Control Fusarium oxysporum” value ([3]; 1 g/l) was 4% and the “Percent Control Fusarium oxysporum” value ([3]; 10 g/l) was 6%. For the same compound, the “Percent Control Fusarium oxysporum” value [3, 18] was 100%, the “Percent Control Phytophthora cinnamomi” value ([4]; 10 g/l) was 37% and the inhibition of growth at 100000 µg/mL ([4]; Phytophthora cinnamomi, 168 h, 100 g/l, read-out: Percent Control Phytophthora cinnamomi) was 100%. For the same compound, the “Percent Control Sclerotium rolfsii” value ([5]; 10 g/l) was 100%, the inhibition of growth at 100000 µg/mL ([5]; Agroathelia rolfsii, 168 h, 100 g/l, read-out: Percent Control Sclerotium rolfsii) was 100% and the “Percent Control Verticillium dahliae” value ([6]; 1 g/l) was 23%. For the same compound, the inhibition of growth ([6]; Verticillium dahliae, 168 h, 10 g/l, read-out: Percent Control Verticillium dahliae) was 26% and the inhibition of growth at 100000 µg/mL ([6]; Verticillium dahliae, 168 h, 100 g/l, read-out: Percent Control Verticillium dahliae) was 100%.

For “stabilized ammonium tetrathiocarbonate [(NH4)2CS4·(NH4)2S]”, the “Half-life (minutes) for production of carbon disulfide” value (“Half-life (minutes) for production” below) ([8]; pH 5.2, 125 milligrams per liter of thiocarbonate ion) was 1 min, the “Half-life (minutes) for production” value ([8]; pH 6.0, 125 milligrams per liter of thiocarbonate ion) was 1 min and the “Half-life (minutes) for production” value ([8]; pH 7.0, 125 milligrams per liter of thiocarbonate ion) was 2.1 min. The “Half-life (minutes) for production” value ([8]; pH 8.0, 125 milligrams per liter of thiocarbonate ion, CaCS4 values above pH 7 called unreliable) was 9.2 min, the “Half-life (minutes) for production” value ([8]; pH 9.0, 125 milligrams per liter of thiocarbonate ion, CaCS4 values above pH 7 called unreliable) was 26.1 min and the “Degradation Time” value [1, 10] was 2 h. For the same compound, the “Degradation Time” value [1, 11] was 3 h, the “Degradation Time” value [1, 12] was 48 h and the “Percent Control Fusarium oxysporum” value ([3]; 1 g/l) was 70%. The “Percent Control Fusarium oxysporum” value ([3]; 10 g/l) was 100%, the “Percent Control Fusarium oxysporum” value [3, 18] was 100% and the “Percent Control Phytophthora cinnamomi” value ([4]; 1 g/l) was 97%. The “Percent Control Phytophthora cinnamomi” value ([4]; 10 g/l) was 74%, the “Percent Control Phytophthora cinnamomi” value ([4]; 100 g/l) was 100% and the “Percent Control Sclerotium rolfsii” value ([5]; 1 g/l) was 49%. For the same compound, the “Percent Control Sclerotium rolfsii” value ([5]; 10 g/l) was 93%, the “Percent Control Sclerotium rolfsii” value ([5]; 100 g/l) was 100% and the “Percent Control Verticillium dahliae” value ([6]; 1 g/l) was 41%. For the same compound, the “Percent Control Verticillium dahliae” value ([6]; 10 g/l) was 81%, the “Percent Control Verticillium dahliae” value ([6]; 100 g/l) was 91% and the “Gall Counts, replicate 3” value [9, 19] was 2. The “Gall Counts, Mean” value [9, 19] was 4.3, the “Gall Counts, replicate 2” value [9, 19] was 5 and the “Gall Counts, replicate 1” value ([9]; highest application: 638 ppm salt/89 ppm Eq. CS2 ((NH4)2CS4·(NH4)2S), 730/91 (CaCS4), 97 ppm (CS2)) was 6. The “Gall Counts, replicate 3” value [9, 20] was 3, the “Gall Counts, Mean” value [9, 20] was 5.0 and the “Gall Counts, replicate 2” value [9, 20] was 7. The “Gall Counts, replicate 1” value ([9]; lowest application: 213 ppm salt/30 ppm Eq. CS2 ((NH4)2CS4·(NH4)2S), 245/31 (CaCS4), 32 ppm (CS2)) was 5, the “Gall Counts, replicate 3” value [9, 21] was 6 and the “Gall Counts, Mean” value [9, 21] was 10.0. The “Gall Counts, replicate 2” value [9, 21] was 15 and the “Gall Counts, replicate 1” value ([9]; middle application: 425 ppm salt/60 ppm Eq. CS2 ((NH4)2CS4·(NH4)2S), 490/61 (CaCS4), 65 ppm (CS2)) was 9.
